Where two headings read alike, the source gives them in different places.
Test system: Ls174T cells
Experiment: Crystal violet growth assay of control and partially HUWE1-depleted Ls174T cells (IC50 shift)
Format: cell-based
Conditions: Homo sapiens, 120 h, crystal violet after five days
Experimental: Partial shRNA-mediated depletion of HUWE1 led to a moderate, but highly significant reduction in IC50 value for growth inhibition by BI8622, arguing that growth inhibition is an on-target effect of the inhibitor (Supplementary Fig S6). […] Incubation with either compound retarded passage of Ls174T cells through all phases of the cell cycle, with the effect being strongest for G1. In contrast to colon carcinoma cells, HUWE1 is not required for proliferation of embryonic stem (ES) cells and deletion of HUWE1 instead delays the decrease of N-MYC levels that occurs upon removal of leukemia inhibitory factor (LIF) from the medium (Zhao et al, [2008]). […] Furthermore, inhibition of HUWE1 in crypt cultures of normal intestinal epithelial cells had no effect on expression of MYC target genes (Fig4G).
HCT116, HEK293T, HeLa, HT29, ES, Phoenix, and U2OS cells were cultivated in DMEM (Sigma). Ls174T and SW480 cells were grown in RPMI 1640 (Sigma). All media were supplemented with 10% FBS (Biochrom AG) and 1% penicillin/streptomycin (Sigma). Medium for ES cells contained 15% FBS, 1% NEAA (Gibco), 6 μg/ml LIF, and 0.05 mM β-mercaptoethanol (Sigma). […] Quantification of crystal violet staining was performed by extracting dye with 10% acetic acid and measuring absorbance at 590 nm. IC50 values were calculated using the four parameter logistic equation model. […]
C. Quantification of the staining. […]

**Q.** How did the IC50 (control Ls174T cells, read-out: IC50 growth inhibition, ctr cells) turn out when `Cc1c(C(=O)Nc2ccc(CN)cc2)ncnc1N1CCC(C#N)(c2ccccc2)CC1` [BI8622] was run?
**A.** 8.1 µM

**Q.** And the IC50 (partially HUWE1-depleted Ls174T cells, read-out: IC50 growth inhibition, shHUWE1 cells)?
**A.** 6.5 µM
